Results: US20050107289A1, “Anti-microbial peptides and compositions” (priority 2001, published 2005)
Values after ≈ are worked out from the molar mass of the structure shown. Like-named read-outs stand apart in the source and are kept apart here. Non-standard residues stand in square brackets, D forms with d. Residues, ends and D or L forms follow the SMILES beside them.

Assays:
[1] = tested on: S. aureus (MRSA) (ATCC No. 33592); test: Time-killing curve, S. aureus MRSA ATCC 33592; format: cell-based, Staphylococcus aureus
Procedure: The speed at which several of the cyclic peptides of the invention kill E. coli JM 109 (DE3), Enterococcus faecium SP 180 and S. aureus (MRSA) (ATCC No. 33591 and 33592) was further tested at room temperature and/or at 37° C. A lower temperature tends to enrich the bacterial cultures for mature bacteria because the bacteria are not growing quickly. […] The presence or absence of immature bacteria in the culture may influence the rate at which the bacteria are killed, because immature bacteria tend to be more susceptible to many forms of antibiotics.
FIGS. 9 and 10 illustrate the time course for killing S. aureus (MRSA) (ATCC No. 33592) with varying concentrations of cyclo[KSKWLWLW] cyclic peptide (SEQ ID NO:12) at room temperature and at 37° C. […] This may be due to growth of a few survivors after the residual cyclic peptide within the culture has been exhausted because the amount of peptide employed in that assay was below the MIC value.

E. faecium SP180 = test: microbe, parasite or virus in culture; format: cell-based, Enterococcus faecium; settings: for MIC: Enterococcus faecium
Procedure: (§1) The antimicrobial activity of the peptides was determined using a broth dilution assay essentially as descried in the guidelines of the National Committee for […] (NCCLS) [National Committee for Clinical Laboratory Standards. Methods for dilution antimicrobial susceptibility tests for bacteria that grow aerobically. Fourth edition. Approved Standard (1997). Document M7-A4. […] The microdilution method has the advantages of requiring less amount of peptide for each assay and the possibility of multiple simultaneous inoculations and was used in most studies. Several of the strains of bacteria tested are further described in Table 3.
(§2) Preparation of peptide solutions. Stock peptide solutions were prepared in 5% DMSO in aq. sucrose (9%). Determination of peptide concentrations was done by quantitative HPLC analysis using known concentrations of internal standards and/or by measuring UV absorption of tryptophane-containing peptide solutions in H2O (λ=280 εTrp: 5690). Serial 2-fold dilutions were made in the above DMSO/aq. sucrose (9%) mixture with concentrations ranging approximately 400-2 μg/ml and aliquots were dispensed in test tubes (100 μl) for the macrodilution test or in microtiter plates (20 μl) for the microdilution assays.
(§3) Inoculum preparation. Overnight cultures of different microorganisms grown in suitable media were diluted 4000 times to an approximate inoculum size of 2.5×10^5 cfu/ml.
(§4) Macrodilution method. Macrodilution methods were performed using procedures similar to those described in the National Committee for Clinical Laboratory Standards. Methods for dilution antimicrobial susceptibility tests for bacteria that grow aerobically. Fourth edition. Approved Standard (1997). Document M7-A4. (NCCLS,Villanova, Pa., 1997). Two ml aliquots of the above inoculum were dispensed to test tubes containing different peptide solutions.
(§5) Microdilution method. Microdilution methods were performed using procedures similar to those described in the National Committee for Clinical Laboratory Standards. Methods for dilution antimicrobial susceptibility tests for bacteria that grow aerobically. Fourth edition. Approved Standard (1997). Document M7-A4.

E. faecalis ATCC 51299 = test: microbe, parasite or virus in culture; format: cell-based, Enterococcus faecalis; settings: for MIC: Enterococcus faecalis
Procedure: as §1, §2, §3, §4, §5

H. influenzae ATCC 49247 = test: microbe, parasite or virus in culture; format: cell-based, Hemophilus influenzae; settings: for MIC: Haemophilus influenzae
Procedure: as §1, §2, §3, §4, §5

[2] = tested on: E. coli (EL744) K12 (tolC::kan); test: microbe, parasite or virus in culture; format: cell-based, Escherichia coli; settings: for MIC: Escherichia coli, read-out: E. coli (EL744) K12 (tolC::kan) MIC
Procedure: as §1, §2, §3, §4, §5

E. coli (K12) = test: microbe, parasite or virus in culture; format: cell-based, Escherichia coli; settings: for MIC: Escherichia coli, read-out: E. coli (K12) MIC
Procedure: as §1, §2, §3, §4, §5

S. aureus ATCC 33592 = test: microbe, parasite or virus in culture; format: cell-based, Staphylococcus aureus; settings: for MIC: Staphylococcus aureus
Procedure: as §1, §2, §3, §4, §5

[3] = Human; cited from earlier work
E. coli JM109(DE3) = format: cell-based, Escherichia coli; settings: JM109
Summary of the method: (§6)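 MICs come from NCCLS-style (M7-A4) dilution testing, mostly microdilution, with an inoculum near 2.5×10^5 cfu/ml from 4000-fold-diluted overnight cultures. Peptide series were 2-fold steps spanning roughly 400–2 μg/ml, prepared in 9% aqueous sucrose with 5% DMSO.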

[4] = trypsin, α-chymotrypsin, subtilisin, blood plasma; RP-HPLC over 24 h
Procedure: Cyclic peptides having SEQ ID NO:13, 18, 26, and 29 were assayed for proteolytic susceptibility.

[5] = tested on: S. aureus (MRSA) ATCC 33591; format: cell-based, Staphylococcus aureus; settings: for MRSA (in vitro activity): Table 9, media b: cation adjusted Meuller Hinton broth (MHBII)
Summary of the method: as §6

murine red blood cells = test: Red blood cell hemolysis; format: cell-based, mouse; parameters: RBC Hemolysis (HD50): unit not given here
Summary of the method: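 Hemolysis read as A560 of supernatant, scaled between saline (0%) and 1% Triton X-100 (100%) controls; peptides were serially diluted onto 5% murine red cells in saline plus 10% FBS and incubated 30 min at 37° C.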

[6] = tested on: vancomycin-resistant Enterococus faecalis (VRE)(ATCC 51575); format: cell-based, Enterococcus faecalis; parameters: key to VRE (in vitro activity): peptide concentration in μg/ml (broth dilution assay); settings: Table 9; media c: Brain Heart Infusion (BHI)
Summary of the method: as §6

[7] = SP180, read-out: E. faecium SP180 MIC
[8] = ATCC51299, read-out: E. faecalis ATCC 51299 MIC
[9] = ATCC49247, HTM, read-out: H. influenzae ATCC 49247 MIC
[10] = ATCC33592, read-out: S. aureus ATCC 33592 MIC

In the case of CC1(C)S[C@@H]2[C@H](NC(=O)Cc3ccccc3)C(=O)N2[C@H]1C(=O)O [Penicillin G, reference compound], the reduction of cfu ([1]; 512 μg/ml, 37° C.) is reported as “effective in reducing the number of cfu within four hours”, the “killing or reducing S. aureus (MRSA) population” value ([1]; room temperature, 0-8 hours, up to 512 μg/ml) is reported as “no concentration of penicillin G assayed up to 512 μg/ml was effective” and the “E. faecium SP180 MIC” value (E. faecium SP180; BHI broth) is reported as 128 µg/mL. For the same molecule, the “E. faecalis ATCC 51299 MIC” value (E. faecalis ATCC 51299; BHI broth) was 0.5 µg/mL, the “H. influenzae ATCC 49247 MIC” value (H. influenzae ATCC 49247; HTM) was 4 µg/mL and the “E. coli (EL744) K12 (tolC::kan) MIC” value ([2]; MHII broth) was 16 µg/mL. The “E. coli (K12) MIC” value (E. coli (K12); MHII broth) was 32 µg/mL and the “S. aureus ATCC 33592 MIC” value (S. aureus ATCC 33592; MHII broth) was 64 µg/mL.

For CC[C@H]1OC(=O)[C@H](C)[C@@H](O[C@H]2C[C@@](C)(OC)[C@@H](O)[C@H](C)O2)[C@H](C)[C@@H](O[C@@H]2O[C@H](C)C[C@H](N(C)C)[C@H]2O)[C@](C)(O)C[C@@H](C)C(=O)[C@H](C)[C@@H](O)[C@]1(C)O [Erythromycin], the “Kel elimination rate constant” value [3] is listed as 0.58 h⁻¹ and the “T1/2 half life time” value [3] is listed as 1.2 h.

For CC(C)C[C@H]1NC(=O)[C@H](CCCNC(=N)N)NC(=O)[C@@H](CCCNC(=N)N)NC(=O)[C@H](Cc2c[nH]c3ccccc23)NC(=O)[C@@H](CC(C)C)NC(=O)[C@H](Cc2c[nH]c3ccccc23)NC1=O [SEQ ID NO:29, cyclo-(D-Arg-Arg-D-Leu-Trp-D-Leu-Trp)] (cyclo(R[dL]W[dL]W[dR])), the “E. coli MIC” value (E. coli JM109(DE3)) was 5 µg/mL, the proteolytic stability [4] was “stable” and the “S. aureus (MRSA) MIC” value ([5]; ATCC 33591) was 35 µg/mL. For the same molecule, the “Hemolysis HD50” value (murine red blood cells; red cells of murine) was 90 µg/mL.

In the case of NC[C@H]1O[C@H](O[C@H]2[C@H](O)[C@@H](O[C@H]3O[C@H](CO)[C@@H](O)[C@H](N)[C@H]3O)[C@H](N)C[C@@H]2N)[C@H](O)[C@@H](O)[C@@H]1O [Kanamycin, reference compound], the “VRE (in vitro activity)” value [6] is reported as over 600, the MIC (E. faecium SP180; [7]) is reported as over 128 µg/mL and the MIC (E. faecalis ATCC 51299; [8]) is reported as over 128 µg/mL. The MIC (H. influenzae ATCC 49247; [9]) was 4 µg/mL (≈ 8.26 µM), the MIC [2] was over 128 µg/mL and the MIC (E. coli (K12); MHII broth) was 4 µg/mL (≈ 8.26 µM). The MIC (S. aureus ATCC 33592; [10]) was over 128 µg/mL, the “MRSA (in vitro activity)” value [5] was 150 and the “RBC Hemolysis (HD50)” value (murine red blood cells; mouse, 30 min) was over 600.

For CCn1cc(C(=O)O)c(=O)c2cc(F)c(N3CCNCC3)cc21 [Norfloxacin, reference compound], the “VRE (in vitro activity)” value [6] was under 2.8, the MIC (E. faecium SP180; SP180, BHI broth, read-out: E. faecium SP180 MIC) was 32 µg/mL (≈ 100 µM) and the MIC (E. faecalis ATCC 51299; ATCC51299, BHI broth, read-out: E. faecalis ATCC 51299 MIC) was 2 µg/mL (≈ 6.26 µM). It also gave an MIC (H. influenzae ATCC 49247; [9]) of 0.06 µg/mL (≈ 0.188 µM), an MIC [2] of 0.016 µg/mL (≈ 0.0501 µM) and an MIC (E. coli (K12); MHII broth) of 0.06 µg/mL (≈ 0.188 µM). The MIC (S. aureus ATCC 33592; ATCC33592, MHII broth, read-out: S. aureus ATCC 33592 MIC) was 0.5 µg/mL (≈ 1.57 µM), the “MRSA (in vitro activity)” value [5] was under 2.8 and the “RBC Hemolysis (HD50)” value (murine red blood cells; mouse, 30 min) was over 360.

In the case of CN[C@H](CC(C)C)C(=O)N[C@H]1C(=O)N[C@@H](CC(N)=O)C(=O)N[C@H]2C(=O)N[C@H]3C(=O)N[C@H](C(=O)N[C@H](C(=O)O)c4cc(O)cc(O)c4-c4cc3ccc4O)[C@H](O)c3ccc(c(Cl)c3)Oc3cc2cc(c3O[C@@H]2O[C@H](CO)[C@@H](O)[C@H](O)[C@H]2O[C@H]2C[C@](C)(N)[C@H](O)[C@H](C)O2)Oc2ccc(cc2Cl)[C@H]1O [Vancomycin, reference compound], the “VRE (in vitro activity)” value [6] is reported as over 240, the MIC (E. faecium SP180; [7]) is reported as over 128 µg/mL and the MIC (E. faecalis ATCC 51299; [8]) is reported as 32 µg/mL (≈ 22.1 µM). The MIC (H. influenzae ATCC 49247; ATCC49247, read-out: H. influenzae ATCC 49247 MIC) was 128 µg/mL (≈ 88.3 µM), the MIC [2] was 128 µg/mL (≈ 88.3 µM) and the MIC (E. coli (K12)) was 128 µg/mL (≈ 88.3 µM). For the same molecule, the MIC (S. aureus ATCC 33592; [10]) was 0.5 µg/mL (≈ 0.345 µM), the CL total clearance [3] was 66 mL/min and the “Kel elimination rate constant” value [3] was 0.12 h⁻¹. The “T1/2 half life time” value [3] was 6 h, the “VD volume of distribution” value [3] was 0.47 L/kg and the “MRSA (in vitro activity)” value [5] was “VANCOMYCIN <1.8”. For the same molecule, the “RBC Hemolysis (HD50)” value (murine red blood cells; Table 9) was over 240.
